In ChEMBL document CHEMBL3244013, “Central nervous system activity of a novel class of annelated 1,4-benzodiazepines, aminomethylene-2,4-dihydro-1H-imidazo[1,2-a][1,4]benzodiazepin-1-ones” (J Med Chem, 1977) one finds ED50 data, which are given here for nine compounds.

The ED50 is the midpoint of the dose-response relation.

Data set [1] concerns Mus musculus. Briefly: Potentiation of hexobarbital-induced sedative effect in po dosed CD-1 mouse assessed as loss of righting reflex after 30 secs. Conditions: CD-1, po. Type of data set: functional.
In data set [2] the test system is Mus musculus. Nature of the data set: Induction of muscle relaxation in po dosed CD-1 mouse after 30 mins by rotary drum test. As to conditions: CD-1, po, 0.5 h. Type of data set: functional.
Data set [3] has as its system Mus musculus. Briefly: Acute toxicity in po dosed CD-1 mouse assessed as mortality after 24 hrs. The class given is organism-based. Conditions: in vivo.
Data set [4] deals with Mus musculus. Briefly: Potentiation of chlorprothixene-induced sedative effect in po dosed CD-1 mouse assessed as loss of righting reflex. Conditions: CD-1, po. The class given is functional.
In data set [5] the test system is Mus musculus. Briefly: Anticonvulsant activity in po dosed CD-1 mouse assessed as protection against pentylenetetrazole-induced convulsion. The class given is functional. Conditions: CD-1, po.
Data set [6] concerns Mus musculus. Briefly: Anticonvulsant activity in po dosed CD-1 mouse assessed as protection against maximal electroshock-induced convulsion. The class given is functional. Conditions: CD-1, po. (Protection in the maximal electroshock model is a classic sign of anticonvulsant action.)
Data set [7] has as its system Mus musculus. Briefly: Antianxiety activity in po dosed CD-1 mouse assessed as inhibition of foot shock-induced aggression after 30 mins relative to control. The class given is functional. Conditions: CD-1, po, 0.5 h.
For data set [8], the system named is Mus musculus. Briefly: Anticonvulsant activity in po dosed CD-1 mouse assessed as protection against strychnine-induced convulsion after 30 mins. The class given is functional. As to conditions: CD-1, po, 0.5 h.

For the compound `CN1CCN(/C=C2\N=C3CN=C(c4ccccc4F)c4cc([N+](=O)[O-])ccc4N3C2=O)CC1`, the ED50 is 0.8 mg/kg in the data set with Mus musculus [1]; 1.5 mg/kg in the data set with Mus musculus [2]; above 1000 mg/kg with Mus musculus [3]; 1.6 mg/kg in the data set with Mus musculus [4]; 0.13 mg/kg in the data set on Mus musculus [5]; 1.2 mg/kg in the data set with Mus musculus [6]. Further, the values for the ED50 with Mus musculus [7] and in the data set with Mus musculus [8] were 0.26 mg/kg and 0.46 mg/kg, respectively.

For the compound `C/C(=C1/N=C2CN=C(c3ccccc3)c3cc(Cl)ccc3N2C1=O)N1CCNCC1`, the ED50 is 5.2 mg/kg in the data set with Mus musculus [1]; above 50 mg/kg with Mus musculus [2]; above 1000 mg/kg with Mus musculus [3]; above 50 mg/kg in the data set with Mus musculus [4]; 4 mg/kg in the data set on Mus musculus [5]; 14 mg/kg with Mus musculus [6]. Besides, the values for the 50% effective dose (ED50) with Mus musculus [7] and in the data set with Mus musculus [8] were above 20 mg/kg and above 50 mg/kg, respectively.

Consider `CCN1CCN(/C=C2\N=C3CN=C(c4ccccc4F)c4cc([N+](=O)[O-])ccc4N3C2=O)CC1`, for which the ED50 in the data set with Mus musculus [1] is 0.72 mg/kg; with Mus musculus [2], 0.37 mg/kg; in the data set with Mus musculus [3], above 1000 mg/kg; in the data set with Mus musculus [4] it was 4 mg/kg; in the data set on Mus musculus [5], 0.18 mg/kg; with Mus musculus [6], 2.6 mg/kg. Moreover, the figures for the 50% effective dose (ED50) with Mus musculus [7] and in the data set on Mus musculus [8] were 0.64 mg/kg and 3.75 mg/kg, respectively.

With `CN(C)/C=C1\N=C2CN=C(c3ccccc3)c3cc(Cl)ccc3N2C1=O`, the 50% effective dose (ED50) with Mus musculus [1] is above 50 mg/kg; in the data set on Mus musculus [2], above 50 mg/kg; in the data set on Mus musculus [3], above 1000 mg/kg; in the data set on Mus musculus [4], above 50 mg/kg; in the data set with Mus musculus [5], 5 mg/kg; in the data set with Mus musculus [6], 42 mg/kg. The median effective dose (ED50) with Mus musculus [7] is 14 mg/kg; in the data set on Mus musculus [8], above 50 mg/kg.

Turning to `O=C1/C(=C/N2CCOCC2)N=C2CN=C(c3ccccc3)c3cc(Cl)ccc3N12`, the median effective dose (ED50) is above 50 mg/kg with Mus musculus [1]; 29 mg/kg in the data set on Mus musculus [2]; above 1000 mg/kg in the data set with Mus musculus [3]; 20.3 mg/kg with Mus musculus [4]; 2.3 mg/kg in the data set with Mus musculus [5]; 7 mg/kg with Mus musculus [6]. Also, the median effective dose (ED50) in the data set with Mus musculus [7] is 2.4 mg/kg; with Mus musculus [8], above 50 mg/kg.

In the case of `CN1CCN(/C=C2\N=C3CN=C(c4ccccc4)c4cc(Cl)ccc4N3C2=O)CC1`, the 50% effective dose (ED50) in the data set on Mus musculus [1] was 4.9 mg/kg; with Mus musculus [2] it was 4.2 mg/kg; in the data set with Mus musculus [3] it was above 1000 mg/kg; in the data set with Mus musculus [4] it was 4.6 mg/kg; with Mus musculus [5], 0.9 mg/kg; in the data set on Mus musculus [6] it was 2.1 mg/kg. Moreover, the 50% effective dose (ED50) with Mus musculus [7] is 2.65 mg/kg; in the data set with Mus musculus [8], 7.1 mg/kg.

`O=C1/C(=C/N2CCN(c3ccccc3)CC2)N=C2CN=C(c3ccccc3)c3cc(Cl)ccc3N12`: the ED50 in the data set with Mus musculus [1] is above 50 mg/kg; in the data set with Mus musculus [2] it was above 50 mg/kg; in the data set with Mus musculus [3] it was above 1000 mg/kg; with Mus musculus [4] it was above 50 mg/kg; with Mus musculus [5], 26 mg/kg; with Mus musculus [6], above 50 mg/kg. In addition, the ED50 in the data set with Mus musculus [7] and in the data set with Mus musculus [8] was above 50 mg/kg throughout.

In the case of `CCN1CCN(/C=C2\N=C3CN=C(c4ccccc4Cl)c4cc([N+](=O)[O-])ccc4N3C2=O)CC1`, the median effective dose (ED50) was 0.8 mg/kg in the data set with Mus musculus [1]; 0.46 mg/kg in the data set on Mus musculus [2]; above 1000 mg/kg in the data set on Mus musculus [3]; 0.99 mg/kg with Mus musculus [4]; 0.15 mg/kg in the data set on Mus musculus [5]; 2.8 mg/kg in the data set on Mus musculus [6]. For the same compound, the median effective dose (ED50) in the data set on Mus musculus [7] was found to be 0.34 mg/kg; with Mus musculus [8], 2.8 mg/kg.

`O=C1/C(=C/N2CCNCC2)N=C2CN=C(c3ccccc3)c3cc(Cl)ccc3N12`: the ED50 in the data set with Mus musculus [1] was 7.5 mg/kg; in the data set on Mus musculus [2], above 50 mg/kg; with Mus musculus [3] it was above 1000 mg/kg; with Mus musculus [4] it was 23 mg/kg; in the data set with Mus musculus [5] it was 1.95 mg/kg; with Mus musculus [6], above 50 mg/kg. Also, the ED50 was above 20 mg/kg with Mus musculus [7] and above 50 mg/kg in the data set with Mus musculus [8].
